The values that follow are results of earlier work, collected in article PMC9886266, “New [1,2,4]triazolo[4,3-c]quinazolines as intercalative Topo II inhibitors: Design, synthesis, biological evaluation, and in silico studies” (PLOS ONE, 2023).

Holding throughout (design): method as in PMID 32882440
In series [1] the target is T1, Topoisomerase II (Topo II) (Homo sapiens, UniProt P11388).
T1 construct: purchased TopoGEN, Inc., Columbus
Conditions: previous work of the authors; cited from earlier work.

In series [2] the test system is HepG2 cell line. Conditions: previous work of the authors; read-out: In vitro cytotoxicity IC50, HepG2; cited from earlier work.
The subject of series [3] is HCT-116 cell line. As to conditions: previous work of the authors; read-out: In vitro cytotoxicity IC50, HCT-116; cited from earlier work.
For series [4], the system named is Activated Calf Thymus DNA. As to conditions: previous work of the authors; read-out: DNA/Methyl green (IC50); cited from earlier work.

T1 sequence (P11388 whole entry): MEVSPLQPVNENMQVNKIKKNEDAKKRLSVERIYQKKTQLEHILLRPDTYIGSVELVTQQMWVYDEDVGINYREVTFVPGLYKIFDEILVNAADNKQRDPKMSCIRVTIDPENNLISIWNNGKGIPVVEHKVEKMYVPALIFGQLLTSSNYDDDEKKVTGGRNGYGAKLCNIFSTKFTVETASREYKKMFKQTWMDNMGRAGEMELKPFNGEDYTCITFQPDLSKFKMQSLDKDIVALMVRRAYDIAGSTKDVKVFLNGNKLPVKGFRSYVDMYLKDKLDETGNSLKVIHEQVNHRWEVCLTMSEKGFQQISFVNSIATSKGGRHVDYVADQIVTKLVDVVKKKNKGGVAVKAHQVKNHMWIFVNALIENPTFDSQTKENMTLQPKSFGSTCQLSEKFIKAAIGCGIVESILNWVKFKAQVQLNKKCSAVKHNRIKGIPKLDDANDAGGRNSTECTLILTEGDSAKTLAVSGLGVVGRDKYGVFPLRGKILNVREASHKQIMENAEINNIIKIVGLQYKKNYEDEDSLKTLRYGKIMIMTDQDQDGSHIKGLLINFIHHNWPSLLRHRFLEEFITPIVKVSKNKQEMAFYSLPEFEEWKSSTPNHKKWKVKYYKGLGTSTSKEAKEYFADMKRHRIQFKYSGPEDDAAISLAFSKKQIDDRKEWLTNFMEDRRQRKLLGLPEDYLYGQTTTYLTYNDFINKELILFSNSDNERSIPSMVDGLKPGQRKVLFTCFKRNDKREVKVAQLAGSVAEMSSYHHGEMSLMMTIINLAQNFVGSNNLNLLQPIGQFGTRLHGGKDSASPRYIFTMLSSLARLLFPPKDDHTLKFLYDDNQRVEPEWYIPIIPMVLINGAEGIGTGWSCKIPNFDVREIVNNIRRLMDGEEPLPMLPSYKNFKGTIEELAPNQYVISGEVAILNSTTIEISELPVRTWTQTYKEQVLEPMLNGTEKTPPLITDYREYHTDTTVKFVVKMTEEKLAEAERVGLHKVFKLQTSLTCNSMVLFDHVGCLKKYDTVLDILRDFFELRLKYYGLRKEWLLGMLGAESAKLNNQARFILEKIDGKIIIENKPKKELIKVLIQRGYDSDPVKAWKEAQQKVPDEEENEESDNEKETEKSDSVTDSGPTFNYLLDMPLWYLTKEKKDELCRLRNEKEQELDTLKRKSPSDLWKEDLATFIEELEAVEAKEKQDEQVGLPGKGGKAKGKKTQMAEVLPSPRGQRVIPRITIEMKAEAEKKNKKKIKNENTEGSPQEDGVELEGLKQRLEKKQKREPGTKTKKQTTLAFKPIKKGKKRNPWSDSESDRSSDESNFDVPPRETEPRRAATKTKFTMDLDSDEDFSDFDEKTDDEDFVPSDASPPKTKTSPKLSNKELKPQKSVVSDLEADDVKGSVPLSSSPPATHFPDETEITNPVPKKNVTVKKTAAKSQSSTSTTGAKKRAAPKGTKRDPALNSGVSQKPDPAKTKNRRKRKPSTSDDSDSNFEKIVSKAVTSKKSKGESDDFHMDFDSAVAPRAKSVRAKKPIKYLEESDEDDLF

For the molecule `O=C(CSc1nnc2c3ccccc3c(=O)n(CC(=O)Nc3ccc(C(=O)O)cc3)n12)Nc1ccc(C(=O)O)cc1` [VIIa], the IC50 in series [1] was 7.45 ± 0.44 µM; in series [2] it was 3.91 ± 0.15 µM; in series [3], 2.62 ± 0.1 µM; in series [4] it was 48.3 ± 2.3 µM.
